Laboratory results reported in US20230295159A1, “ATX INHIBITOR, AND PREPARATION METHOD THEREFOR AND USE THEREOF” (SUZHOU ARK BIOPHARMACEUTICAL CO., LTD., priority 2020, published 2023).
Like-named read-outs stand apart in the source and are kept apart here.

What was measured:
ATX enzyme = ATX enzyme (Homo sapiens (Human), UniProt Q13822); experiment: ATX enzyme activity inhibition assay; format: biochemical; details: 16:0-LPC substrate, Amplex UltraRed fluorescence
Experimental: The tested compounds were dissolved with dimethyl sulfoxide (DMSO) to prepare 20 mM of stock solutions, the stock solutions were subjected to 4-fold gradient dilutions with DMSO, with the initial concentration of 20 µM and a total of 8 concentration gradients. 20 nL of diluted compound was transferred to a 384-well plate using Echo 550 and 5 µL of ATX enzyme solution formulated with 4 × Tris-HCl reaction buffer to the well, then the 384-well plate was centrifuged at 1000 rpm for 1 min and […] pre-incubated at room temperature for 15 min. Subsequently, 5 µL of 16:0-LPC foumulated with the above 4 × reaction buffer and 10 µL of assay solution containng 2 × Amplex UltraRed reagent, choline oxidase and horseradish peroxidase (HRP) foumulated with the same reaction buffer were added to each well, then the 384-well plate was centrifugated at 1000 rpm for 1 min. The fluorescence signals were read at an excitation wavelength of 530 nm and an emission wavelength of 590 nm by Synergy 2 microplate reader. The inhibition rate of the compound against enzyme reaction was calculated according to the fluorescence intensity ratio, and IC50 of the compound was analysed and calculated by GraphPad Prism 5 software.

[1] = Rat pharmacokinetic study; format: in vivo, SD rat; details: for half-life: read-out: t½ (converted)
Experimental: SD rat pharmacokinetic study was performed on several compounds in Examples of the present disclosure through a single intravenous injection (IV, at a dose of 2 mg/kg) and a single oral administration (PO, at a dose of 10 mg/kg), and blood samples were taken before administration and 5 min, 15 min, 30 min, 1 h, 2 h, 4 h, 8 h, 12 h and 24 h after administration, respectively, to determine the plasma concentration of the compound for assay. The pharmacokinetic data of control compound and the compounds in Examples 17, 26, 28 and 29 of the present disclosure in rat plasma are shown in Tables 4-8.

hERG potassium channel = hERG potassium channel (Homo sapiens (Human), UniProt Q12809); experiment: hERG inhibition assay (manual whole-cell patch clamp); format: cell-based; details: hERG tail current, stable transfected cell line
Chain of hERG potassium channel (Q12809 whole entry): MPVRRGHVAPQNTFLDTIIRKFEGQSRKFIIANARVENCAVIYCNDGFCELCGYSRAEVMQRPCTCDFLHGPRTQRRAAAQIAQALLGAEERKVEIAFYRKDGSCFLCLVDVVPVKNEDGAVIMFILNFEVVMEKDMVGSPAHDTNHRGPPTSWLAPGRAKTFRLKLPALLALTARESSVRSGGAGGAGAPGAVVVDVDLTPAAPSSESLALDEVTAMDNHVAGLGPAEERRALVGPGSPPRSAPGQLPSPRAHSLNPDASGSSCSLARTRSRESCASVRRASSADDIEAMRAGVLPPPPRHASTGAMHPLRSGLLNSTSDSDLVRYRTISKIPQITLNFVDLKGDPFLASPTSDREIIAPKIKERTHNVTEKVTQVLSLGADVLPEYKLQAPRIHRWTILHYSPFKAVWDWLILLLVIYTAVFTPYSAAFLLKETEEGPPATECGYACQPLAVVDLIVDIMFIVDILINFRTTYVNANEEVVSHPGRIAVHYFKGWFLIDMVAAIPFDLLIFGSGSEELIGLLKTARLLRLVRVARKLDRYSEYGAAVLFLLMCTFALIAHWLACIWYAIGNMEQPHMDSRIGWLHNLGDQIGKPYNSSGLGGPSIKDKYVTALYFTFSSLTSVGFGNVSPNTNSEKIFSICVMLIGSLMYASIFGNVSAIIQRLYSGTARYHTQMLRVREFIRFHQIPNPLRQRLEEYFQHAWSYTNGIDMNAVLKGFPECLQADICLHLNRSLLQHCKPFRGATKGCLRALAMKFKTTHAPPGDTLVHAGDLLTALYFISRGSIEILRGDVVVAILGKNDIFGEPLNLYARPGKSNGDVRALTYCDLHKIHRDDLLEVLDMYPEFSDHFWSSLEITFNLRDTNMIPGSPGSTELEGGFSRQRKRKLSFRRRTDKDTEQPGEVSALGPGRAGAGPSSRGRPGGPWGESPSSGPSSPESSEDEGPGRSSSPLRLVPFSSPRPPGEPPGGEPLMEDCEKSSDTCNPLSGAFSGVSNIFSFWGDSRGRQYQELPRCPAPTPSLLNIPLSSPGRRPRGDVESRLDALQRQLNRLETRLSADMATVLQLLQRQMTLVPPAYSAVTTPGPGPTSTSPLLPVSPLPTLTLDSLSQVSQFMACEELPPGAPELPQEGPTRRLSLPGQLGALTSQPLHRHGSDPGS
Experimental: Rapid activation of human delayed rectifier potassium current (IKr) is mainly mediated by hERG ion channel and participates in repolarization of human cardiomyocytes. Blocking this current with drugs will lead to QT interval prolongation syndrome in clinical practice, which will easily induce acute arrhythmia and even sudden death.
Experimental method: a whole-cell patch clamp technique was used to record hERG current. The cell suspension was added to a small petri dish and placed on an inverted microscope stage. After adherence, the cells were perfused with extracellular fluid at a recommended flow rate of 1-2 mL/min. The glass microelectrode was drawn by a microelectrode drawing instrument in two steps, and the resistance thereof after filling the electrode interior liquid was 2-5 MΩ. After the whole-cell recording mode was set up, the clamping potential was maintained at -80 mV. The depolarization voltage was applied to +60 mV for 850 ms, and then repolarized to -50 mV for 1275 ms to induce hERG tail current. Such a set of pulse programming was repeated every 15 seconds throughout the experiment. After the current was stable, the drug was administered by extracellular continuous perfusion from low concentration to high concentration. Starting from low concentration, perfusion continued until the drug effect was stable, then perfusion at the next concentration was performed. In this experiment, the blocking effect on hERG tail current was tested for the test objects at different concentrations and the positive control (N ≥ 2). Then, stimulus generation and signal acquisition were carried out by PatchMaster software; and a signal was amplified with a patch clamp amplifier. FitMaster, EXCEL, Graphpad Prism, SPSS 21.0, etc. were used for further data analysis and curve fitting. In data processing, when determining the blocking effect on hERG, the peak and baseline of tail current were calibrated. The inhibition rate (IR) of tail current was used to express the effect of the compounds at different concentrations.
IR = 100% × (peak of tail current before administration - peak of tail current after administration)/peak of tail current before administration.
IC50 was obtained by fitting the Hill equation (if applicable), if the maximum inhibition rate of the test object at all concentrations was less than 50%, then IC50 was not calculated. [00500]

[2] = molecular target: 3A4 subtype of CYP450 enzyme (Homo sapiens (Human), UniProt P08684); experiment: 3A4 subtype of CYP450 enzyme time-dependent inhibition assay (IC50 shift); format: in vitro ADME; details: both IC50 values above top concentration; testosterone substrate; read-out: IC50 against 3A4 subtype (both groups, pre-incubated with and without NADPH)
Chain of 3A4 subtype of CYP450 enzyme (P08684 whole entry): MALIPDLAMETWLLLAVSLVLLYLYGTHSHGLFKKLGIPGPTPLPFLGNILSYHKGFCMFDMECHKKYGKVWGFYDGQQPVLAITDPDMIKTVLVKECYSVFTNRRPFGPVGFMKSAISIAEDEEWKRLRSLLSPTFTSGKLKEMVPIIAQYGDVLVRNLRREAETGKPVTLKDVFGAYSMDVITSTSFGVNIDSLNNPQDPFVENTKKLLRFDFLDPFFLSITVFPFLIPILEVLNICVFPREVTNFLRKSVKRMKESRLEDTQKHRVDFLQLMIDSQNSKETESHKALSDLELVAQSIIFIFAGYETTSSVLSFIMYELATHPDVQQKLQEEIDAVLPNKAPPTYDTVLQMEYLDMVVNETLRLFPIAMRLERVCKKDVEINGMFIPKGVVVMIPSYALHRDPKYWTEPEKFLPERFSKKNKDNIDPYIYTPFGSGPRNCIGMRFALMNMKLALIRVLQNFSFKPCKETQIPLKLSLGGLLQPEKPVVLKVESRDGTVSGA
Experimental: The probe substrate was testosterone at a concentration of 50 µM. The reaction was terminated after incubation for 10 min. The IC50 of the compound against enzyme was calculated by measuring the relative yield of metabolite, and the IC50 shift was calculated from the IC50 results of the groups pre-incubated with and without addition of NADPH.

IC50 (ATX enzyme): 0.0074 µM
Cl_F_pred ([1]; IV 2 mg/kg): 7.17 mL/min/kg
Cl_F_pred ([1]; PO 10 mg/kg): 18.2 mL/min/kg
F ([1]; PO 10 mg/kg vs IV 2 mg/kg): 38.5%
AUC(0-inf) ([1]; SD, plasma, IV 2 mg/kg): 4720 ng·h/mL
AUC(0-t) ([1]; SD, plasma, IV 2 mg/kg): 4680 ng·h/mL
Cmax ([1]; SD, plasma, IV 2 mg/kg): 2540 ng/mL
half-life ([1]; SD, plasma, IV 2 mg/kg): 4 h
AUC(0-inf) ([1]; SD, plasma, PO 10 mg/kg): 9180 ng·h/mL
AUC(0-t) ([1]; SD, plasma, PO 10 mg/kg): 9030 ng·h/mL
Cmax ([1]; SD, plasma, PO 10 mg/kg): 1030 ng/mL
Tmax ([1]; SD, plasma, PO 10 mg/kg): 4 h
half-life ([1]; SD, plasma, PO 10 mg/kg): 3.7 h
IC50 [2]: > 100 µM
SMILES: CCN(c1nc(-c2ccc(F)cc2)c(C#N)s1)c1c2nc(-c3cnc(N4CCCS4(=O)=O)nc3)ccc2nn1CC [Example 17, 2-((5-(2-(1,1-dioxidoisothiazolidin-2-yl)pyrimidin-5-yl)-2-ethyl-2H-pyrazolo[4,3-b]pyridin-3-yl)(ethyl)amino)-4-(4-fluorophenyl)thiazole-5-carbonitrile]
IC50 (hERG potassium channel): > 30 µM
